Measured values: patent US9168281B2, “Kit for treating a wound” (priority 2011, dated 2015)

Experiments:
Test in all cases: Phenol Red Dextrose broth growth test of product containing CPC
Type in all cases: cell-based
Conditions in all cases: 37° C., 24 hours
Strep pyogenes = system: Strep pyogenes
Method: (§1) Phenol Red Dextrose broth tubes were prepared and a small loop of an organism cultured in peptone broth for 24 hours at 37° C. was used to inoculate the tubes in duplicate to a series of ten. […] The inoculated tubes were incubated at a temperature of 37° C. for 24 hours and growth of organism assessed compared to an inoculated tube without presence of product.

Proteus vulgaris = system: Proteus vulgaris
Method: as §1

P. aeruginosa = system: P. aeruginosa
Method: as §1

Staph aureus (MRSA) = system: Staph aureus (MRSA)
Method: as §1

Staph aureus (non MRSA) = system: Staph aureus (non MRSA)
Method: as §1

Candida albicans = system: Candida albicans
Method: as §1

Strep equi = system: Strep equi
Method: as §1

Measured: growth of organism

CCCCCCCCCCCCCCCC[n+]1ccccc1 [CPC, cetyl pyridinium chloride]
n/g: Strep pyogenes; 0.1 mL CPC (0.004% vol. comp) | Strep pyogenes; 0.2 mL CPC (0.008% vol. comp) | Strep pyogenes; 0.3 mL CPC (0.016% vol. comp) | Strep pyogenes; 0.4 mL CPC (0.032% vol. comp) | Strep pyogenes; 0.5 mL CPC (0.064% vol. comp) | Strep pyogenes; 0.6 mL CPC (0.128% vol. comp) | Strep pyogenes; 0.7 mL CPC (0.256% vol. comp) | Strep pyogenes; 0.8 mL CPC (0.512% vol. comp) | Strep pyogenes; 0.9 mL CPC (1.024% vol. comp) | Strep pyogenes; 1.0 mL CPC (2.048% vol. comp) | Proteus vulgaris; 0.1 mL CPC (0.004% vol. comp) | Proteus vulgaris; 0.2 mL CPC (0.008% vol. comp) | Proteus vulgaris; 0.3 mL CPC (0.016% vol. comp) | Proteus vulgaris; 0.4 mL CPC (0.032% vol. comp) | Proteus vulgaris; 0.5 mL CPC (0.064% vol. comp) | Proteus vulgaris; 0.6 mL CPC (0.128% vol. comp) | Proteus vulgaris; 0.7 mL CPC (0.256% vol. comp) | Proteus vulgaris; 0.8 mL CPC (0.512% vol. comp) | Proteus vulgaris; 0.9 mL CPC (1.024% vol. comp) | Proteus vulgaris; 1.0 mL CPC (2.048% vol. comp) | P. aeruginosa; 0.1 mL CPC (0.004% vol. comp) | P. aeruginosa; 0.2 mL CPC (0.008% vol. comp) | P. aeruginosa; 0.3 mL CPC (0.016% vol. comp) | P. aeruginosa; 0.4 mL CPC (0.032% vol. comp) | P. aeruginosa; 0.5 mL CPC (0.064% vol. comp) | P. aeruginosa; 0.6 mL CPC (0.128% vol. comp) | P. aeruginosa; 0.7 mL CPC (0.256% vol. comp) | P. aeruginosa; 0.8 mL CPC (0.512% vol. comp) | P. aeruginosa; 0.9 mL CPC (1.024% vol. comp) | P. aeruginosa; 1.0 mL CPC (2.048% vol. comp) | Staph aureus (MRSA); 0.1 mL CPC (0.004% vol. comp) | Staph aureus (MRSA); 0.2 mL CPC (0.008% vol. comp) | Staph aureus (MRSA); 0.3 mL CPC (0.016% vol. comp) | Staph aureus (MRSA); 0.4 mL CPC (0.032% vol. comp) | Staph aureus (MRSA); 0.5 mL CPC (0.064% vol. comp) | Staph aureus (MRSA); 0.6 mL CPC (0.128% vol. comp) | Staph aureus (MRSA); 0.7 mL CPC (0.256% vol. comp) | Staph aureus (MRSA); 0.8 mL CPC (0.512% vol. comp) | Staph aureus (MRSA); 0.9 mL CPC (1.024% vol. comp) | Staph aureus (MRSA); 1.0 mL CPC (2.048% vol. comp) | Staph aureus (non MRSA); 0.1 mL CPC (0.004% vol. comp) | Staph aureus (non MRSA); 0.2 mL CPC (0.008% vol. comp) | Staph aureus (non MRSA); 0.3 mL CPC (0.016% vol. comp) | Staph aureus (non MRSA); 0.4 mL CPC (0.032% vol. comp) | Staph aureus (non MRSA); 0.5 mL CPC (0.064% vol. comp) | Staph aureus (non MRSA); 0.6 mL CPC (0.128% vol. comp) | Staph aureus (non MRSA); 0.7 mL CPC (0.256% vol. comp) | Staph aureus (non MRSA); 0.8 mL CPC (0.512% vol. comp) | Staph aureus (non MRSA); 0.9 mL CPC (1.024% vol. comp) | Staph aureus (non MRSA); 1.0 mL CPC (2.048% vol. comp) | Candida albicans; 0.1 mL CPC (0.004% vol. comp) | Candida albicans; 0.2 mL CPC (0.008% vol. comp) | Candida albicans; 0.3 mL CPC (0.016% vol. comp) | Candida albicans; 0.4 mL CPC (0.032% vol. comp) | Candida albicans; 0.5 mL CPC (0.064% vol. comp) | Candida albicans; 0.6 mL CPC (0.128% vol. comp) | Candida albicans; 0.7 mL CPC (0.256% vol. comp) | Candida albicans; 0.8 mL CPC (0.512% vol. comp) | Candida albicans; 0.9 mL CPC (1.024% vol. comp) | Candida albicans; 1.0 mL CPC (2.048% vol. comp) | Strep equi; 0.1 mL CPC (0.004% vol. comp) | Strep equi; 0.2 mL CPC (0.008% vol. comp) | Strep equi; 0.3 mL CPC (0.016% vol. comp) | Strep equi; 0.4 mL CPC (0.032% vol. comp) | Strep equi; 0.5 mL CPC (0.064% vol. comp) | Strep equi; 0.6 mL CPC (0.128% vol. comp) | Strep equi; 0.7 mL CPC (0.256% vol. comp) | Strep equi; 0.8 mL CPC (0.512% vol. comp) | Strep equi; 0.9 mL CPC (1.024% vol. comp) | Strep equi; 1.0 mL CPC (2.048% vol. comp)
